Common to all, as to assay type: in vivo
Series [1] has as its system Beet Armyworm (Spodoptera exigua, LAPHEG). Put plainly: Bioassay on Beet Armyworm (BAW), 128-well diet tray assay. The note with it: 168 h, 50 μg/cm^2 on artificial diet, second instar larvae, five to seven days, 25° C., read-out: BAW % Control (or Mortality) rating. The method in brief: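 Mortality of second-instar larvae (one to five per well) was scored after five to seven days at 25 °C under 14:10 light-dark and averaged across eight wells. Each well's diet had received 50 μg/cm^2 test molecule from a 90:10 acetone-water solution, allowed to dry before infestation.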

For series [2], the system named is Cabbage Looper (Trichoplusia ni, TRIPNI). The series can be described thus: Bioassay on Cabbage Looper (CL), 128-well diet tray assay. The following applies: 168 h, 50 μg/cm^2 on artificial diet, second instar larvae, five to seven days, 25° C., read-out: CL % Control (or Mortality) rating. An outline of the steps: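 Percent mortality, averaged over eight wells, scored after five to seven days at 25° C. under 14:10 light-dark. Each well held 1–5 second-instar larvae on artificial diet treated with 50 μg/cm^2 test molecule applied in 90:10 acetone-water and dried.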

The subject of series [3] is Yellow Fever Mosquito (Aedes aegypti, AEDSAE). The note with it: about 1 day-old larvae, 3 days, room temperature, scored on mortality. As for the experimental part: Example C: Bioassays on Yellow Fever Mosqurro (Aedes aegypti, AEDSAE) (“YFM”)
Certain molecules disclosed in this document were tested against YFM using procedures described in the following paragraph. In the reporting of the results, the “GPA & YFM Rating Table” was used (See Table Section).
Master plates containing 400 μg of a molecule dissolved in 100 μL of dimethyl sulfoxide (DMSO) (equivalent to a 4000 ppm solution) are used. A master plate of assembled molecules contains 15 μL per well. To this plate, 135 μL of a 90:10 water:acetone mixture is added to each well. A robot (Biomek® NXP Laboratory Automation Workstation) is programmed to dispense 15 μL aspirations from the master plate into an empty 96-well shallow plate (“daughter” plate). There are 6 reps (“daughter” plates) created per master. The created daughter plates are then immediately infested with YFM larvae.
The day before plates are to be treated, mosquito eggs are placed in Millipore water containing liver powder to begin hatching (4 g. into 400 mL). After the daughter plates are created using the robot, they are infested with 220 μL of the liver powder/larval mosquito mixture (about 1 day-old larvae). After plates are infested with mosquito larvae, a non-evaporative lid is used to cover the plate to reduce drying. Plates are held at room temperature for 3 days prior to grading. After 3 days, each well is observed and scored based on mortality. The results are indicated in the table entitled “Table ABC: Biological Results” (See Table Section).

Results on seven compounds are retold here after patent US10681908B2, “Molecules having pesticidal utility, and intermediates, compositions, and processes, related thereto” (Dow AgroSciences LLC, priority 2016, dated 2020).

Structures are written as SMILES.

The mortality is the percentage killed.

`C[C@H](CS(=O)(=O)CC(F)(F)F)NC(=O)c1ccc(/C(F)=C/C(c2cc(Cl)c(F)c(Cl)c2)C(F)(F)F)cc1C(F)(F)F` (stereo partly drawn) [F29, 4-((Z)-3-(3,5-Dichloro-4-fluorophenyl)-1,4,4,4-tetrafluorobut-1-en-1-yl)-N—((R)-1-((2,2,2-trifluoroethyl)sulfonyl)propan-2-yl)-2-(trifluoromethyl)benzamide]: the mortality at 50 µg/cm2 in series [1] and in series [2] was 50 to 100% each time. Besides, the “YFM % Control (or Mortality) rating” value in series [3] was “A (80-100)”.
For `C[C@H](CSCC(F)(F)F)NC(=O)c1ccc(/C(F)=C/C(c2cc(Br)cc(Br)c2)C(F)(F)F)cc1C(F)(F)F` (stereo partly drawn) [F30, 4-((Z)-3-(3,5-Dibromophenyl)-1,4,4,4-tetrafluorobut-1-en-1-yl)-N—((R)-1-((2,2,2-trifluoroethyl)thio)propan-2-yl)-2-(trifluoromethyl)benzamide], the mortality at 50 µg/cm2 in series [1] and in series [2] was 50 to 100% throughout. In series [3], the “YFM % Control (or Mortality) rating” value is given as “A (80-100)”.
As to `C[C@H](C[S+]([O-])CC(F)(F)F)NC(=O)c1ccc(/C(F)=C/C(c2cc(Br)cc(Br)c2)C(F)(F)F)cc1C(F)(F)F` (stereo partly drawn) [F31, 4-((Z)-3-(3,5-Dibromophenyl)-1,4,4,4-tetrafluorobut-1-en-1-yl)-N-((2R)-1-((2,2,2-trifluoroethyl)sulfinyl)propan-2-yl)-2-(trifluoromethyl)benzamide], the mortality at 50 µg/cm2 in series [1] and in series [2] was 50 to 100% in each case. Further, the “YFM % Control (or Mortality) rating” value in series [3] is “B (More than 0-Less than 80)”.
With `C=Cc1c(Cl)cc(C(/C=C(\F)c2ccc(C(=O)N[C@H](C)CSCC(F)(F)F)c(C(F)(F)F)c2)C(F)(F)F)cc1Cl` (stereo partly drawn) [F32, 4-((Z)-3-(3,5-Dichloro-4-vinylphenyl)-1,4,4,4-tetrafluorobut-1-en-1-yl)-N—((R)-1-((2,2,2-trifluoroethyl)thio)propan-2-yl)-2-(trifluoromethyl)benzamide], the mortality at 50 µg/cm2 in series [1] and in series [2] was 50 to 100% throughout. Moreover, the “YFM % Control (or Mortality) rating” value in series [3] was “A (80-100)”.
Turning to `C=Cc1c(Cl)cc(C(/C=C(\F)c2ccc(C(=O)N[C@H](C)CS(=O)(=O)CC(F)(F)F)c(C(F)(F)F)c2)C(F)(F)F)cc1Cl` (stereo partly drawn) [F33, 4-((Z)-3-(3,5-Dichloro-4-vinylphenyl)-1,4,4,4-tetrafluorobut-1-en-1-yl)-N—((R)-1-((2,2,2-trifluoroethyl)sulfonyl)propan-2-yl)-2-(trifluoromethyl)benzamide], the mortality at 50 µg/cm2 in series [1] and in series [2] was 50 to 100% each time. In series [3], the “YFM % Control (or Mortality) rating” value was “A (80-100)”.
With `C=Cc1c(Cl)cc(C(/C=C(\F)c2ccc(C(=O)N[C@H](C)C[S+]([O-])CC(F)(F)F)c(C(F)(F)F)c2)C(F)(F)F)cc1Cl` (stereo partly drawn) [F34, 4-((Z)-3-(3,5-Dichloro-4-vinylphenyl)-1,4,4,4-tetrafluorobut-1-en-1-yl)-N-((2R)-1-((2,2,2-trifluoroethyl)sulfinyl)propan-2-yl)-2-(trifluoromethyl)benzamide], the mortality at 50 µg/cm2 in series [1] and in series [2] was 50 to 100% each time. In addition, the “YFM % Control (or Mortality) rating” value in series [3] is “A (80-100)”.
Regarding `Cc1cc(C(/C=C(\F)c2ccc(C(=O)N[C@H](C)CS(=O)(=O)CC(F)(F)F)c(C(F)(F)F)c2)C(F)(F)F)cc(C)c1Cl` (stereo partly drawn) [F35, 4-((Z)-3-(4-Chloro-3,5-dimethylphenyl)-1,4,4,4-tetrafluorobut-1-en-1-yl)-N—((R)-1-((2,2,2-trifluoroethyl)sulfonyl)propan-2-yl)-2-(trifluoromethyl)benzamide], the mortality at 50 µg/cm2 in series [1] and in series [2] was 50 to 100% throughout. For the same compound, the “YFM % Control (or Mortality) rating” value in series [3] is listed as “A (80-100)”.
